In one experiment the target is PKR R510Q (Homo sapiens, UniProt P30613, R510Q). The experiment is described as follows: PKR Mutant Assay, AC50 against PKR R510Q. The experiment is classed as biochemical. The following applies: mutant PKR R510Q enzyme. In outline: (§1)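 PK-LDH coupled assay, RT. Enzyme + cpd + PEP/NADH/LDH, 60 min pre-incubation, no ADP. ADP 0.22-1.65 mM to initiate; A340 kinetic read. Cpd 11 pts, 3-fold, 100 μM top.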

Experiment [1] has as its target T1, PKR WT (Homo sapiens, UniProt P30613). Nature of the experiment: PKR WT enzymatic AC50 assay. The following applies: wild type PKR. In kind it is biochemical. A digest of the protocol: as §1
For experiment [2], the target named is T1, PKR WT. The experiment is described as follows: PKR WT cell based AC50 assay. The following applies: wild type PKR.
In the next experiment the target is PKR R532W (Homo sapiens, UniProt P30613, R532W). Nature of the experiment: PKR Mutant Assay, AC50 against PKR R532W. In kind it is biochemical. As to conditions: mutant PKR R532W enzyme. In outline: as §1
Sequence of PKR R532W (P30613 whole entry R532W): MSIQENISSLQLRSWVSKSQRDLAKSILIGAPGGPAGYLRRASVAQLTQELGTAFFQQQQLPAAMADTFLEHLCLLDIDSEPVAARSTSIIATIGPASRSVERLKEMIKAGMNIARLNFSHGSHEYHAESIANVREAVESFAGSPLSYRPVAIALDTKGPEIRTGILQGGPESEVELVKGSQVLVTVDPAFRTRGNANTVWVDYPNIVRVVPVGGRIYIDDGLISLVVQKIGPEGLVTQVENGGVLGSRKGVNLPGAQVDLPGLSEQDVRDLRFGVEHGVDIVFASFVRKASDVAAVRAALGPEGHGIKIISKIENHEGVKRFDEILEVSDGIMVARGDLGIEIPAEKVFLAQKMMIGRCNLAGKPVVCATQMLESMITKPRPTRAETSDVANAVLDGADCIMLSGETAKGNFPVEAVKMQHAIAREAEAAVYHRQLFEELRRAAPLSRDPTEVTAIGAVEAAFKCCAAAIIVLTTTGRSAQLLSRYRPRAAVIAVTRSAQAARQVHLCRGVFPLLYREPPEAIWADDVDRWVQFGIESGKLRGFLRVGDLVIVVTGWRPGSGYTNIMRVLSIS

The structures appear in SMILES notation.

Sequence of PKR R510Q (P30613 whole entry R510Q): as the sequence (P30613 whole entry R532W) above, with R510Q, W532R counted along it
T1 sequence (P30613 whole entry): as the sequence (P30613 whole entry R532W) above, with W532R counted along it

`O=C(c1ccc(NS(=O)(=O)c2cccc3cccnc23)cc1)N1CCC(O)(Cc2cccnc2)CC1` [Compound 185, N-(4-(4-hydroxy-4-(pyridin-3-ylmethyl)piperidine-1-carbonyl)phenyl)quinoline-8-sulfonamide]: the half-maximal activity concentration (AC50) is 101 to 1000 nM on PKR R510Q, under 100 nM at PKR WT [1], 101 to 1000 nM at PKR WT [2] and under 100 nM at PKR R532W.

On to `O=C(c1ccc(NS(=O)(=O)c2cccc3cc(F)cnc23)cc1)N1CCC(O)(Cc2ccccc2)CC1` [Compound 128, N-(4-(4-benzyl-4-hydroxypiperidine-1-carbonyl)phenyl)-3-fluoroquinoline-8-sulfonamide], for which the concentration at half-maximal activity (AC50) on PKR R510Q, at PKR WT [1], on PKR WT [2] and at PKR R532W was under 100 nM in each case.

For `O=C(c1ccc(NS(=O)(=O)c2cccc3nccnc23)cc1)N1CCC(O)(CCC(F)=C(F)F)CC1` [Compound 398, N-(4-(4-hydroxy-4-(3,4,4-trifluorobut-3-enyl)piperidine-1-carbonyl)phenyl)quinoxaline-5-sulfonamide], the concentration at half-maximal activity (AC50) at PKR R510Q is 101 to 1000 nM; at PKR WT [1] it was under 100 nM; on PKR WT [2], under 100 nM; at PKR R532W, under 100 nM.

Consider `O=C(c1ccc(NS(=O)(=O)c2cccc3scnc23)cc1)N1CCC(O)(CCCC(F)F)CC1` [Compound 389, N-(4-(4-(4,4-difluorobutyl)-4-hydroxypiperidine-1-carbonyl)phenyl)benzo[d]thiazole-4-sulfonamide], for which the concentration at half-maximal activity (AC50) on PKR R510Q, on PKR WT [1], on PKR WT [2] and on PKR R532W was under 100 nM in each case.

Turning to `O=C(c1ccc(NS(=O)(=O)c2cccc3cccnc23)cc1)N1CCC(O)(Cc2cccc(F)c2)CC1` [Compound 105, N-(4-(4-(3-fluorobenzyl)-4-hydroxypiperidine-1-carbonyl)phenyl)quinoline-8-sulfonamide], the half-maximal activity concentration (AC50) on PKR R510Q, on PKR WT [1], at PKR WT [2] and on PKR R532W was under 100 nM throughout.

Take `CS(=O)(=O)c1ccccc1C1(O)CCN(C(=O)c2ccc(NS(=O)(=O)c3cccc4cccnc34)cc2)CC1` [Compound 192, N-[4-[4-hydroxy-4-(2-methylsulfonylphenyl)piperidine-1-carbonyl]phenyl]quinoline-8-sulfonamide]: the AC50 on PKR R510Q was 1010 to 10000 nM; at PKR WT [1], under 100 nM; on PKR WT [2] it was under 100 nM; on PKR R532W, under 100 nM.

For `CS(=O)(=O)c1cccc(C2(O)CCN(C(=O)c3ccc(NS(=O)(=O)c4cccc5cccnc45)cc3)CC2)c1` [Compound 182, N-(4-(4-hydroxy-4-(3-(methylsulfonyl)phenyl)piperidine-1-carbonyl)phenyl)quinoline-8-sulfonamide], the results for the half-maximal activity concentration (AC50) at PKR R510Q, on PKR WT [1] and on PKR WT [2] were 1010 to 10000 nM, under 100 nM and under 100 nM, respectively.

Consider `O=C(c1ccc(NS(=O)(=O)c2cccc3cccnc23)cc1)N1CCC(O)(c2cccc(C(F)(F)F)n2)CC1` [Compound 174, N-[4-[4-hydroxy-4-[6-(trifluoromethyl)pyridin-2-yl]piperidine-1-carbonyl]phenyl]quinoline-8-sulfonamide], for which the AC50 at PKR R510Q is 101 to 1000 nM; at PKR WT [1], under 100 nM; at PKR WT [2], under 100 nM; at PKR R532W, under 100 nM.

As for `CC(F)(F)CCC1(O)CCN(C(=O)c2ccc(NS(=O)(=O)c3cccc4nccnc34)cc2OC(F)F)CC1` [Compound 436], the AC50 at PKR R510Q is 101 to 1000 nM; on PKR WT [1], 101 to 1000 nM; on PKR WT [2], 101 to 1000 nM; on PKR R532W, under 100 nM.

As for `O=C(c1ccc(NS(=O)(=O)c2cccc3scnc23)cc1)N1CCC(O)(c2cccc(F)c2F)CC1` [Compound 178, N-(4-(4-(2,3-difluorophenyl)-4-hydroxypiperidine-1-carbonyl)phenyl)benzo[d]thiazole-4-sulfonamide], the AC50 at PKR R510Q is 101 to 1000 nM; at PKR WT [1], under 100 nM; at PKR WT [2], under 100 nM; at PKR R532W it was under 100 nM.

Take `CC(C)CC1(O)CCN(C(=O)c2ccc(NS(=O)(=O)c3cc(F)cc4sc(N)nc34)cc2)CC1` [Compound 145, 2-amino-6-fluoro-N-(4-(4-hydroxy-4-isobutylpiperidine-1-carbonyl)phenyl)benzo[d]thiazole-4-sulfonamide]: the AC50 on PKR R510Q, on PKR WT [1], on PKR WT [2] and on PKR R532W was under 100 nM each time.

As to `N#Cc1cc(NS(=O)(=O)c2cccc3cccnc23)ccc1C(=O)N1CCC(O)(c2ccccc2Cl)CC1` [Compound 209], the half-maximal activity concentration (AC50) is 101 to 1000 nM at PKR R510Q, under 100 nM at PKR WT [1], under 100 nM on PKR WT [2] and under 100 nM at PKR R532W.

In the case of `O=C(c1ccc(NS(=O)(=O)c2cccc3cccnc23)cc1)N1CCC(O)(CCCO)CC1` [Compound 253, N-(4-(4-hydroxy-4-(3-hydroxypropyl)piperidine-1-carbonyl)phenyl)quinoline-8-sulfonamide], the AC50 on PKR R510Q lay within 1010 to 10000 nM; on PKR WT [1], 101 to 1000 nM; at PKR R532W it was 101 to 1000 nM.

As to `CC(C)CC1(O)CCN(C(=O)c2ccc(NS(=O)(=O)c3cccc4csnc34)cc2)CC1` [Compound 257], the AC50 at PKR R510Q fell in the range of 1010 to 10000 nM; on PKR WT [1] it was 101 to 1000 nM; on PKR R532W, 101 to 1000 nM.

Take `O=C(c1ccc(NS(=O)(=O)n2ccc3cccnc32)cc1)N1CCC(O)(c2ccccc2Cl)CC1` [Compound 318]: the AC50 at PKR R510Q, at PKR WT [1] and at PKR R532W was over 10000 nM each time.

`O=C(c1cc(F)c(NS(=O)(=O)c2cccc3cccnc23)cc1F)N1CCC(O)(c2ccccc2)CC1` [Compound 290]: the concentration at half-maximal activity (AC50) was in the range of 1010 to 10000 nM at PKR R510Q, 101 to 1000 nM at PKR WT [1] and 101 to 1000 nM on PKR R532W.

As for `O=C(c1ccc(NS(=O)(=O)c2cccc(OC(F)(F)F)c2)cc1)N1CCC(O)(Cc2ccccc2)CC1` [Compound 307], the half-maximal activity concentration (AC50) on PKR R510Q is over 10000 nM; at PKR WT [1], 1010 to 10000 nM; at PKR R532W, 1010 to 10000 nM.

With `CC(C)CC1(O)CCN(C(=O)c2ccc(NS(=O)(=O)c3cccc4csnc34)cc2)CC1` [Compound 376], the AC50 on PKR R510Q is 1010 to 10000 nM; on PKR WT [1], 101 to 1000 nM; on PKR R532W, 101 to 1000 nM.

In the case of `CCOCC1(O)CCN(C(=O)c2ccc(NS(=O)(=O)c3cccc4cccnc34)cc2)CC1` [Compound 246, N-(4-(4-(ethoxymethyl)-4-hydroxypiperidine-1-carbonyl)phenyl)quinoline-8-sulfonamide], the AC50 at PKR R510Q is 1010 to 10000 nM; at PKR WT [1], 101 to 1000 nM; on PKR R532W, under 100 nM.

For `O=C(c1ccc(NS(=O)(=O)c2cccc3scnc23)cc1)N1CCC(O)(CCC(F)F)CC1` [Compound 235, N-(4-(4-(3,3-difluoropropyl)-4-hydroxypiperidine-1-carbonyl)phenyl)benzo[d]thiazole-4-sulfonamide], the AC50 at PKR R510Q, on PKR WT [1] and on PKR R532W was 101 to 1000 nM each time.

With `O=C(c1ccc(NS(=O)(=O)c2cccc3cccnc23)cc1)N1CCC(O)(c2cccc(F)n2)CC1` [Compound 286], the AC50 on PKR R510Q lay in the range of 1010 to 10000 nM; at PKR WT [1], 101 to 1000 nM; on PKR R532W it was 101 to 1000 nM.

Regarding `O=C(c1ccc(NS(=O)(=O)c2cccc3scnc23)cc1)N1CCC(O)(c2ccccc2-c2ccccc2Cl)CC1` [Compound 271], the AC50 at PKR R510Q lay in the range of 1010 to 10000 nM; on PKR WT [1], 101 to 1000 nM; on PKR R532W, 101 to 1000 nM.

For the molecule `C=C(C)CC1(O)CCN(C(=O)c2ccc(NS(=O)(=O)c3cccc4scnc34)cc2)CC1` [Compound 181, N-(4-(4-hydroxy-4-(2-methylallyl)piperidine-1-carbonyl)phenyl)benzo[d]thiazole-4-sulfonamide], the AC50 is 101 to 1000 nM at PKR R510Q, under 100 nM at PKR WT [1] and under 100 nM on PKR R532W.

`COc1cccc(C2(O)CCN(C(=O)c3ccc(NS(=O)(=O)c4cccc5cccnc45)cc3)CC2)c1` [Compound 276]: the half-maximal activity concentration (AC50) on PKR R510Q was 1010 to 10000 nM; on PKR WT [1] it was 101 to 1000 nM; at PKR R532W it was 101 to 1000 nM.

Turning to `N#Cc1ccc(C2(O)CCN(C(=O)c3ccc(NS(=O)(=O)c4cccc5cccnc45)cc3)CC2)cc1` [Compound 255, N-[4-[4-(4-cyanophenyl)-4-hydroxy-piperidine-1-carbonyl]phenyl]quinoline-8-sulfonamide], the AC50 on PKR R510Q is 1010 to 10000 nM; on PKR WT [1], 101 to 1000 nM; on PKR R532W it was 101 to 1000 nM.

`N#Cc1cc(C(=O)N2CCC(O)(c3ccccc3Cl)CC2)ccc1NS(=O)(=O)c1cccc2cccnc12` [Compound 273]: the half-maximal activity concentration (AC50) at PKR R510Q was in the range of 1010 to 10000 nM; on PKR WT [1], 101 to 1000 nM; on PKR R532W, 101 to 1000 nM.

Regarding `O=C(c1ccc(NS(=O)(=O)c2cccc3cccnc23)cc1)N1CCC(CO)(Cc2ccccc2)CC1` [Compound 149, N-(4-(4-benzyl-4-(hydroxymethyl)piperidine-1-carbonyl)phenyl)quinoline-8-sulfonamide], the AC50 at PKR WT [1], on PKR WT [2] and at PKR R532W was under 100 nM in each case.

Consider `O=C(c1ccc(NS(=O)(=O)c2cccc3scnc23)cc1)N1CCC(O)(CC2CC2)CC1` [Compound 198, N-(4-(4-(cyclopropylmethyl)-4-hydroxypiperidine-1-carbonyl)phenyl)benzo[d]thiazole-4-sulfonamide], for which the AC50 is 101 to 1000 nM on PKR R510Q, under 100 nM on PKR WT [1] and under 100 nM on PKR R532W.

Turning to `O=C(c1ccc(NS(=O)(=O)c2cccc3nccnc23)cc1)N1CCC(O)(CC2CC2)CC1` [Compound 188, N-(4-(4-(cyclopropylmethyl)-4-hydroxypiperidine-1-carbonyl)phenyl)quinoxaline-5-sulfonamide], the AC50 is 101 to 1000 nM on PKR R510Q, under 100 nM at PKR WT [1] and under 100 nM on PKR R532W.

The AC50 is the concentration giving half of the maximal activity seen. A low value points to greater potency.

(Values after patent US9108921B2, “Therapeutic compounds and compositions” (AGIOS PHARMACEUTICALS, INC, priority 2014, dated 2015).)
